Converted amounts (≈) assume the structure as drawn. Read-outs that look alike come from different tables or passages of the source.
Legend:
Assay in all cases: Serum MIC, broth micro-dilution
Type in all cases: cell-based
[1] = test system: Escherichia coli strain ATCC 25922; details: Escherichia coli, ATCC25922, read-out: E. coli 25922 Serum MIC
Procedure: (§1) In vitro antimicrobial activity of each compound was determined by measuring minimal inhibitor concentrations (MICs) using the broth micro-dilution technique as approved by the Clinical and Laboratory Standards Institute (CLSI) (Methods for Dilution Antimicrobial Susceptibility Tests for Bacteria that Grow Aerobically; Approved Standard—Eighth Edition. CLSI document M07-A8. Wayne, Pa.: Clinical and Laboratory Standards; 2009). Antibacterial activity was measure against Escherichia coli strain ATCC 25922 (E. coli), Klebsiella pneumoniae ATCC 700603 (K. pneumoniae), Acinetobacter baumannii ATCC 17978 (A. baumannii), and Pseudomonas aeruginosa PA01 (P. aeruginosa), each of which is representative of a clinically relevant Gram-negative species. Cells were inoculated onto plates of Mueller Hinton Agar and grown at 37° C. for 16-18 hours. Inocula suspensions were prepared by scraping cells into 1 mL of testing media (Mueller Hinton II cation adjusted Broth) and diluting to a final OD 600 nm of 0.01.
(§2) Test compounds were prepared in DMSO at a concentration of […]. The compounds were tested under several different dilution formats. In protocol 1, the compound stocks were diluted into testing media at a concentration of 64 μg/ml and serial 2-fold dilutions were made in the same media, in 96-well U bottom microtiter dishes, for a total of 10 compound concentrations. In protocol 2, the compound stocks were diluted into testing media at a concentration of 4 μg/mL and serial 2-fold dilutions were made in the same media, in 96-well U bottom microtiter dishes, for a total of 10 compound concentrations. In protocol 3, compound stocks were diluted into testing media at a concentration of 0.5 μg/mL, with serial 2-fold dilutions conducted as described above. In protocol 4, compound stocks were diluted into testing media at a concentration of 0.13 μg/mL, with serial 2-fold dilutions conducted as described above. Inocula suspensions were added to the 2-fold serial dilutions of test compounds to a final density of OD 600 nm of 0.0005 and incubated at 35° C. for 22 hours. […] To assess antimicrobial activity in the presence of plasma proteins, MICs were also determined in growth media supplemented with 50% serum. Bacterial inocula and test compound dilution plates were prepared using the same protocol as described above for the standard MICs assay, with the exception that a mixture of 50% v/v Mueller Hinton II cation adjusted Broth and 50% v/v mouse sterile filtered serum (Equitech-Bio) was used in place of 100% Mueller Hinton II cation adjusted Broth. The results are listed in Table 3 (MIC, IC50 values micromolar).

[2] = test system: Pseudomonas aeruginosa PA01; details: Pseudomonas aeruginosa, PA01, read-out: P. aeruginosa 01 Serum MIC
Procedure: as §1, §2

[3] = test system: Klebsiella pneumoniae ATCC 700603; details: Klebsiella pneumoniae, ATCC700603
Procedure: as §1, §2

[4] = test system: Acinetobacter baumannii ATCC 17978; details: Acinetobacter baumannii, ATCC17978
Procedure: as §1, §2

[5] = 50% v/v mouse serum in Mueller Hinton II cation adjusted Broth, 35° C., 22 hours, Table 4
[6] = 50% v/v mouse serum in Mueller Hinton II cation adjusted Broth, 35° C., 22 hours, Table 4, read-out: K pneumoniae 700603 Serum MIC
[7] = 50% v/v mouse serum in Mueller Hinton II cation adjusted Broth, 35° C., 22 hours, Table 4, read-out: A. baumanii 17978 Serum MIC
[8] = 50% v/v mouse serum in Mueller Hinton II cation adjusted Broth, 35° C., 22 hours, Table 5, read-out: Acinetobacter baumanii 17978 Serum MIC
[9] = 50% v/v mouse serum, compounds of Table 1, Table 7

SMILES | MIC [1, 5] | MIC [2, 5] | MIC [3, 6] | MIC [4, 7] | MIC [4, 8] | MIC [1, 9] | MIC [2, 9] | MIC ([3]; 50% v/v mouse serum, compounds of Table 1, Table 7, read-out: K. pneumoniae 700603 Serum MIC) | MIC ([4]; 50% v/v mouse serum, compounds of Table 1, Table 7, read-out: A. baumanii 17978 Serum MIC)
CCC(C)(C)c1ccc(-c2nc(C)c(C(=O)N[C@@H](CNS(N)(=O)=O)C(=O)N(C)[C@@H]3C(=O)N[C@@H](C)C(=O)N[C@H](C(=O)O)Cc4ccc(OC[C@H](O)CN)c(c4)-c4cc3cc(OC[C@H](O)CN)c4O)c(N)n2)cc1 [Example 45, (8S,11S,14S)-14-[[(2S)-2-[[4-amino-2-[4-(1,1-dimethyl-propyl)phenyl]-6-methyl-pyrimidine-5-carbonyl]amino]-3-(sulfamoylamino)-propanoyl]-methyl-amino]-3,17-bis[(2R)-3-amino-2-hydroxy-propoxy]-18-hydroxy-11-methyl-10,13-dioxo-9,12-diazatri-cyclo[13.3.1.12,6]icosa-1(18),2(20),3,5,15(19), 16-hexaene-8-carboxylic acid] | 0.5 µM (≈ 0.511 µg/mL) | 3 µM (≈ 3.07 µg/mL) | 0.5 µM (≈ 0.511 µg/mL) | 8 µM (≈ 8.18 µg/mL) | 8 µM (≈ 8.18 µg/mL) | – | – | – | –
Cc1nc(-c2ccc(C3(C)CC3)cc2)ncc1C(=O)N[C@@H](CCN)C(=O)N(C)[C@@H]1C(=O)N[C@@H](C)C(=O)N[C@H](C(=O)O)Cc2ccc(OC[C@@H](O)CN)c(c2)-c2cc1cc(OC[C@@H](O)CN)c2O [Example 73, (8S,11S,14S)-3,17-bis[(2S)-3-amino-2-hydroxy-propoxy]-14-[[(2S)-4-amino-2-[[4-methyl-2-[4-(1-methylcyclopropyl)-phenyl]pyrimidine-5-carbonyl]amino]-butanoyl]-methyl-amino]-18-hydroxy-11-methyl-10,13-dioxo-9,12-diazatri-cyclo-[13.3.1.12,6]icosa-1(19),2(20),3,5,15,17-hexaene-8-carboxylic acid] | 0.38 µM (≈ 0.352 µg/mL) | 64 µM (≈ 59.3 µg/mL) | 0.25 µM (≈ 0.232 µg/mL) | 16 µM (≈ 14.8 µg/mL) | 16 µM (≈ 14.8 µg/mL) | – | – | – | –
Cc1nc(-c2ccc(C(C)(C)C)cc2)nc(C)c1C(=O)N[C@@H](CCN)C(=O)N(C)[C@@H]1C(=O)N[C@@H](C)C(=O)N[C@H](C(=O)O)Cc2cc(OCCN)c(O)c(c2)-c2cc1ccc2O (racemic) [Example 561-15] | – | – | – | – | – | 2 µM (≈ 1.68 µg/mL) | 64 µM (≈ 53.7 µg/mL) | 4 µM (≈ 3.36 µg/mL) | 64 µM (≈ 53.7 µg/mL)
Cc1nc(N2CCC(C(C)(C)C)CC2)nc(N)c1C(=O)N[C@@H](CNS(N)(=O)=O)C(=O)N(C)[C@@H]1C(=O)N[C@@H](C)C(=O)N[C@H](C(=O)O)Cc2ccc(OC[C@H](O)CN)c(c2)-c2cc1cc(OC[C@H](O)CN)c2O [Example 12, (8S,11S,14S)-18-hydroxy-11-methyl-14-[methyl-[(2S)-2-[[4-amino-2-(4-tert-butyl-1-piperidyl)-6-methyl-pyrimidine-5-carbonyl]amino]-3-(sulfamoylamino)-propanoyl]amino]-10,13-dioxo-3,17-bis[(2R)-3-amino-2-hydroxy-propoxy]-9,12-diazatricyclo-[13.3.1.12,6]icosa-1(18),2(20),3,5,15(19), 16-hexaene-8-carboxylic acid] | 2 µM (≈ 2.03 µg/mL) | 16 µM (≈ 16.2 µg/mL) | 3 µM (≈ 3.05 µg/mL) | 16 µM (≈ 16.2 µg/mL) | 16 µM (≈ 16.2 µg/mL) | – | – | – | –
Cc1nc(-c2ccc3c(c2)CCC3(C)C)nc(N)c1C(=O)N[C@@H](CCN)C(=O)N(C)[C@@H]1C(=O)N[C@@H](C)C(=O)N[C@H](C(=O)O)Cc2ccc(OC[C@H](O)CN)c(c2)-c2cc1cc(OC[C@H](O)CN)c2O [Example 47, (8S,11S,14S)-18-hydroxy-11-methyl-14-[methyl-[(2S)-4-amino-2-[[4-amino-2-(1,1-dimethylindan-5-yl)-6-methyl-pyrimidine-5-carbonyl]amino]-butanoyl]amino]-10,13-dioxo-3,17-bis[(2R)-3-amino-2-hydroxy-propoxy]-9,12-diazatricyclo-[13.3.1.12,6]icosa-1(18),2(20),3,5,15(19), 16-hexaene-8-carboxylic acid] | 0.25 µM (≈ 0.239 µg/mL) | 16 µM (≈ 15.3 µg/mL) | 0.25 µM (≈ 0.239 µg/mL) | 16 µM (≈ 15.3 µg/mL) | 16 µM (≈ 15.3 µg/mL) | – | – | – | –
C[C@@H]1NC(=O)[C@@H](N(C)C(=O)[C@H](CCN)NC(=O)c2c(N)cc(-c3ccc(C(C)(C)C)cc3)nc2Cl)c2cc(OC[C@H](O)CN)c(O)c(c2)-c2cc(ccc2OC[C@H](O)CN)C[C@@H](C(=O)O)NC1=O [Example 51, (8S,11S,14S)-18-hydroxy-11-methyl-14-[methyl-[(2S)-4-amino-2-[[4-amino-6-(4-tert-butylphenyl)-2-chloro-pyridine-3-carbonyl]amino]-butanoyl]amino]-10,13-dioxo-3,17-bis[(2R)-3-amino-2-hydroxy-propoxy]-9,12-diazatricyclo-[13.3.1.12,6]icosa-1(18),2(20),3,5,15(19), 16-hexaene-8-carboxylic acid] | 0.19 µM (≈ 0.183 µg/mL) | 8 µM (≈ 7.7 µg/mL) | 0.13 µM (≈ 0.125 µg/mL) | 8 µM (≈ 7.7 µg/mL) | 8 µM (≈ 7.7 µg/mL) | – | – | – | –
Cc1nc(-c2ccc(C(C)(C)C)c(F)c2)nc(N)c1C(=O)N[C@@H](CNS(N)(=O)=O)C(=O)N(C)[C@@H]1C(=O)N[C@@H](C)C(=O)N[C@H](C(=O)O)Cc2ccc(OC[C@H](O)CN)c(c2)-c2cc1cc(OC[C@H](O)CN)c2O [Example 60, (8S,11S,14S)-14-[[(2S)-2-[[4-amino-2-(4-tert-butyl-3-fluoro-phenyl)-6-methyl-pyrimidine-5-carbonyl]amino]-3-(sulfamoylamino)-propanoyl]-methyl-amino]-3,17-bis[(2R)-3-amino-2-hydroxy-propoxy]-18-hydroxy-11-methyl-10,13-dioxo-9,12-diazatricyclo-[13.3.1.12,6]icosa-1(18),2(20),3,5,15(19), 16-hexaene-8-carboxylic acid] | 0.5 µM (≈ 0.513 µg/mL) | 4 µM (≈ 4.1 µg/mL) | 0.75 µM (≈ 0.77 µg/mL) | 12 µM (≈ 12.3 µg/mL) | 12 µM (≈ 12.3 µg/mL) | – | – | – | –
C[C@@H]1NC(=O)[C@@H](N(C)C(=O)[C@H](CCN)NC(=O)c2c(N)nc(-c3ccc(C(C)(C)C)cc3)nc2Cl)c2cc(OC[C@H](O)CN)c(O)c(c2)-c2cc(ccc2OC[C@H](O)CN)C[C@@H](C(=O)O)NC1=O [Example 55, (8S,11S,14S)-18-hydroxy-11-methyl-14-[methyl-[(2S)-4-amino-2-[[4-amino-2-(4-tert-butylphenyl)-6-chloro-pyrimidine-5-carbonyl]amino]-butanoyl]amino]-10,13-dioxo-3,17-bis[(2R)-3-amino-2-hydroxy-propoxy]-9,12-diazatricyclo-[13.3.1.12,6]icosa-1(18),2(20),3,5,15(19), 16-hexaene-8-carboxylic acid] | 0.19 µM (≈ 0.183 µg/mL) | 6 µM (≈ 5.78 µg/mL) | 0.19 µM (≈ 0.183 µg/mL) | 6 µM (≈ 5.78 µg/mL) | 6 µM (≈ 5.78 µg/mL) | – | – | – | –
C[C@@H]1NC(=O)[C@@H](N(C)C(=O)[C@H](CCN)NC(=O)c2cnn(-c3ccc(OC4CCCCC4)cc3)c(=O)c2)c2cc(OC[C@H](O)CN)c(O)c(c2)-c2cc(ccc2OC[C@H](O)CN)C[C@@H](C(=O)O)NC1=O [Example 26, (8S,11S,14S)-18-hydroxy-11-methyl-14-[methyl-[(2S)-4-amino-2-[[1-[4-(cyclohexoxy)phenyl]-6-oxo-pyridazine-4-carbonyl]amino]-butanoyl]amino]-10,13-dioxo-3,17-bis[(2R)-3-amino-2-hydroxy-propoxy]-9,12-diazatricyclo-[13.3.1.12,6]icosa-1(18),2(20),3,5,15(19), 16-hexaene-8-carboxylic acid] | 1 µM (≈ 0.972 µg/mL) | 64 µM (≈ 62.2 µg/mL) | 0.75 µM (≈ 0.729 µg/mL) | 24 µM (≈ 23.3 µg/mL) | 24 µM (≈ 23.3 µg/mL) | – | – | – | –
